Experiment [1] has as its target T1, UDP-3-O-acyl-N-acetylglucosamine deacetylase (Pseudomonas aeruginosa (strain ATCC 15692 / PAO1 / 1C / PRS 101 / LMG12228), UniProt P47205).
T1 sequence (P47205 whole entry): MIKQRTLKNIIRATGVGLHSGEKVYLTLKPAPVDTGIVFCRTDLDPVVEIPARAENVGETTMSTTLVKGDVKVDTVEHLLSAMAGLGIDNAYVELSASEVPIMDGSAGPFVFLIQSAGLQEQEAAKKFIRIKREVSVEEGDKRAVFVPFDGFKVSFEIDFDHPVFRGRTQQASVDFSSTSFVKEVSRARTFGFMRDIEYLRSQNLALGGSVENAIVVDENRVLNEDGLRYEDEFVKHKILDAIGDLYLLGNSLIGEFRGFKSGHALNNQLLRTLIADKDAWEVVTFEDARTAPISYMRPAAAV
Put plainly: Inhibition of Pseudomonas aeruginosa LpxC using UDP-3-O-(R-3-hydroxydecanoyl)-N-acetylglucosamine as substrate preincubated for 20 mins before substrate addition by LC/MS/MS analysis.

Experiment [2] concerns Pseudomonas aeruginosa. Put plainly: Antimicrobial activity against MexABCDXY-deficient Pseudomonas aeruginosa PAO1 ARC546 by CLSI dilution method. The format is functional.
Experiment [3] relates to Pseudomonas aeruginosa. Put plainly: Antimicrobial activity against Pseudomonas aeruginosa PAO1 ARC545 by CLSI dilution method. In kind it is functional.
Experiment [4] relates to Escherichia coli. Put plainly: Antimicrobial activity against TolC-deficient Escherichia coli ARC524 W3110 harboring mutant by CLSI dilution method. In kind it is functional.
For experiment [5], the system named is Escherichia coli. Put plainly: Antimicrobial activity against Escherichia coli ARC523 W3110 harboring mutant by CLSI dilution method. The format is functional.
The target in experiment [6] is Collagenase 3 (Homo sapiens) (UniProt P45452). Put plainly: Inhibition of MMP13 (unknown origin) at 15 uM.
Experiment [7] has as its target 72 kDa type IV collagenase (Homo sapiens) (UniProt P08253). The experiment can be described thus: Inhibition of MMP2 (unknown origin) at 10 uM.
Experiment [8] deals with Collagenase 3 (Homo sapiens) (UniProt P45452). The experiment can be described thus: Inhibition of MMP13 (unknown origin) at 10 uM.
In experiment [9] the target is 72 kDa type IV collagenase (Homo sapiens) (UniProt P08253). Put plainly: Inhibition of MMP2 (unknown origin) at 30 uM.
72 kDa type IV collagenase (Homo sapiens), sequence (P08253 110-660 limits assumed): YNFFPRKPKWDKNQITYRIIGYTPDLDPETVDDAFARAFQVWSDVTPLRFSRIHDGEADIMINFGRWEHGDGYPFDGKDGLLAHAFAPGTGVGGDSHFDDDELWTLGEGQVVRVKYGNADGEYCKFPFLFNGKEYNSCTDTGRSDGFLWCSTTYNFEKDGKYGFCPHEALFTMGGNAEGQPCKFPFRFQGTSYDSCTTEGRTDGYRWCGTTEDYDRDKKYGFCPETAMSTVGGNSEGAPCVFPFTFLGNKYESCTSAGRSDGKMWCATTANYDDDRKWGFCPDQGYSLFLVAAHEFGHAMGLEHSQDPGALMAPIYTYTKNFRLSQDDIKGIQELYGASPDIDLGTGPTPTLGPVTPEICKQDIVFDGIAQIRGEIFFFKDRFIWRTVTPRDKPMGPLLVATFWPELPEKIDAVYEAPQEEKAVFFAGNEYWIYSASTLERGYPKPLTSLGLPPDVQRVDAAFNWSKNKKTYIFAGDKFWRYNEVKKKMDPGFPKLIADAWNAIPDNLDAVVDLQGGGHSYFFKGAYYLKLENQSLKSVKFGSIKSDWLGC
Experiment [10] deals with Collagenase 3 (Homo sapiens) (UniProt P45452). The experiment can be described thus: Inhibition of MMP13 (unknown origin) at 30 uM.

In brackets after ≈: the same amount, converted by molar mass. Where only a bound is given, the exact number is not on record here.

As usually defined, the IC50 is the concentration needed to halve the response being measured. Read a high IC50 as weaker potency. The MIC is the least concentration at which growth counts as inhibited. A high value points to weaker potency. Broadly, the inhibition is the drop in the measured response relative to a control, in per cent. A lower inhibition goes with little suppression.

For the compound `O=C(NO)C1(CSc2ccc(C#Cc3ccc(CN4CCOCC4)cc3)cc2)CCOCC1`, the concentration for half-maximal inhibition (IC50) in [1] is 0.2 nM. Besides, the MIC in experiment [2] is 0.39 µM (≈ 0.182 µg/mL); in [3], 25 µM (≈ 11.7 µg/mL); in [4] it was under 0.2 µM; in [5], 3.13 µM (≈ 1.46 µg/mL).
For the compound `CC(C)N1CCN(Cc2ccc(C#Cc3ccc(OCC4(C(=O)NO)CCOCC4)cc3)cc2)CC1`, half-maximal inhibition in [1] (IC50) required 7.5 nM. The MIC in experiment [2] came to 3.13 µM (≈ 1.54 µg/mL); in experiment [3], 100 µM (≈ 49.2 µg/mL); in experiment [4], 12.5 µM (≈ 6.15 µg/mL); in experiment [5], 100 µM (≈ 49.2 µg/mL).
In experiment [1], `COC1CCC(COc2ccc(C#Cc3ccc(CN4CCOCC4)cc3)cc2)(C(=O)NO)CC1` (stereo not given) returned an IC50 of 8.6 nM. For the same compound, the MIC is 3.13 µM (≈ 1.5 µg/mL) in [2], over 200 µM in experiment [3], 6.25 µM (≈ 2.99 µg/mL) in experiment [4] and 100 µM (≈ 47.9 µg/mL) in experiment [5].
`O=C(NO)C1(CSc2ccc(Oc3ccc(Cl)cc3)cc2)CCOCC1` had an IC50 in [1] of 7.4 nM. In addition, the MIC in experiment [2] was 6.25 µM (≈ 2.46 µg/mL); in experiment [3], 50 µM (≈ 19.7 µg/mL); in experiment [4], 50 µM (≈ 19.7 µg/mL); in experiment [5], over 200 µM. In experiment [6], this compound returned an inhibition of 99%.
The compound `O=C(NO)C1(C[S+]([O-])c2ccc(C#Cc3ccc(CN4CCOCC4)cc3)cc2)CCOCC1` (racemic) showed an IC50 in experiment [1] of 3.1 nM. The MIC was under 0.2 µM in experiment [2], 25 µM (≈ 12.1 µg/mL) in experiment [3], under 0.2 µM in [4] and 1.56 µM (≈ 0.753 µg/mL) in [5]. Also, the results for the inhibition in [7] and in experiment [8] were 97% and 96%, respectively.
Regarding `CC(C)(O)C#CC#Cc1ccc(OCC2(C(=O)NO)CCOCC2)cc1`, in experiment [1], half-maximal inhibition (IC50) required 139 nM. Moreover, the MIC in experiment [2] is 25 µM (≈ 8.94 µg/mL); in experiment [3], over 200 µM; in [4], 6.25 µM (≈ 2.23 µg/mL); in [5], 200 µM (≈ 71.5 µg/mL).
For `CN(C)CC1CN(Cc2ccc(C#Cc3ccc(OCC4(C(=O)NO)CCOCC4)cc3)cc2)CCO1` (stereo not given), in that order: 5.8 nM, 3.13 µM (≈ 1.59 µg/mL), 100 µM (≈ 50.8 µg/mL), 6.25 µM (≈ 3.17 µg/mL) and 200 µM (≈ 102 µg/mL).
`O=C(CN1CCN(Cc2ccc(C#Cc3ccc(OCC4(C(=O)NO)CCOCC4)cc3)cc2)CC1)N1CCOCC1` showed an IC50 in experiment [1] of 1.7 nM. For the same compound, the MIC is 12.5 µM (≈ 7.21 µg/mL) in [2], over 200 µM in experiment [3], 25 µM (≈ 14.4 µg/mL) in experiment [4] and over 200 µM in experiment [5].
For the compound `C[C@@H](O)[C@H](NC(=O)c1ccc(C#Cc2ccc(CN3CCOCC3)cc2)cc1)C(=O)NO`, the MIC in [2] is under 0.2 µM; in experiment [3], 1.56 µM (≈ 0.682 µg/mL); in [4], under 0.2 µM; in experiment [5], under 0.2 µM. Also, the inhibition was 12% in experiment [9] and 30% in experiment [10].
In experiment [1], `O=C(NO)C1(COc2ccc(C#Cc3ccc(CN4CCN(CCN5CCOCC5)CC4)cc3)cc2)CCOCC1` had an IC50 of 2.7 nM. In addition, the MIC in experiment [2] is 0.78 µM (≈ 0.439 µg/mL); in experiment [3], 50 µM (≈ 28.1 µg/mL); in experiment [4], 1.56 µM (≈ 0.878 µg/mL); in experiment [5] it was 25 µM (≈ 14.1 µg/mL).
In experiment [1], `O=C(NO)C1(COc2ccc(C#Cc3ccc(CN4CCOCC4)cc3)cc2)CCOCC1` yielded an IC50 of 4.4 nM. For the same compound, the MIC in experiment [2] was found to be 1.56 µM (≈ 0.703 µg/mL); in experiment [3], 100 µM (≈ 45.1 µg/mL); in [4], 1.56 µM (≈ 0.703 µg/mL); in [5], 12.5 µM (≈ 5.63 µg/mL). In addition, the figures for the inhibition in experiment [7] and in experiment [8] were 94% and 82%, respectively.
For `O=C(NO)C1(COc2ccc(C#Cc3ccc(CN4CCN(CCn5ccnc5)CC4)cc3)cc2)CCOCC1`, the IC50 in experiment [1] turned out to be 2 nM. Besides, the MIC in [2] stood at 0.78 µM (≈ 0.424 µg/mL); in experiment [3] it was 50 µM (≈ 27.2 µg/mL); in [4], 0.78 µM (≈ 0.424 µg/mL); in experiment [5], 6.25 µM (≈ 3.4 µg/mL). Moreover, the figures for the inhibition in [7] and in experiment [8] were 93% and 80%, respectively.
Turning to `O=C(NO)C1(COc2ccc(C#Cc3ccc(CN4CCOCC4)cc3)cc2)CCC(O)CC1` (stereo not given), in experiment [1], the IC50 was 82.5 nM. Besides, the MIC is 25 µM (≈ 11.6 µg/mL) in [2], over 200 µM in experiment [3], 25 µM (≈ 11.6 µg/mL) in experiment [4] and over 200 µM in [5].
The compound `CN1CCN(Cc2ccc(C#Cc3ccc(OCC4(C(=O)NO)CCOCC4)cc3)cc2)CC1` displayed an IC50 in [1] of 6.1 nM. In addition, the MIC was found to be 1.56 µM (≈ 0.723 µg/mL) in [2], 100 µM (≈ 46.4 µg/mL) in [3], 3.13 µM (≈ 1.45 µg/mL) in [4] and 50 µM (≈ 23.2 µg/mL) in [5].
For `O=C(NO)C1(COc2ccc(-c3ccccc3)cc2)CCOCC1`, in that order: 8.7 nM, 6.25 µM (≈ 2.05 µg/mL), 100 µM (≈ 32.7 µg/mL), over 200 µM and over 200 µM.
For `O=C(NO)C1(COc2ccc(Oc3ccccc3)cc2)CCOCC1`, in that order: 92 nM, 25 µM (≈ 8.58 µg/mL), over 200 µM, over 200 µM and over 200 µM.
For `O=C(NO)C1(COc2ccc(C#CC#Cc3ccccc3)cc2)CCOCC1`, in that order: 33 nM, over 200 µM, over 200 µM, 50 µM (≈ 18.8 µg/mL) and 200 µM (≈ 75.1 µg/mL).
Regarding `CC(=O)N1CCN(Cc2ccc(C#Cc3ccc(OCC4(C(=O)NO)CCOCC4)cc3)cc2)CC1`, the IC50 in [1] worked out at 3 nM. Besides, the MIC in [2] is 0.78 µM (≈ 0.383 µg/mL); in experiment [3], 50 µM (≈ 24.6 µg/mL); in experiment [4], 0.39 µM (≈ 0.192 µg/mL); in experiment [5], 25 µM (≈ 12.3 µg/mL).
`COc1ccc(CNCc2ccc(C#Cc3ccc(OCC4(C(=O)NO)CCOCC4)cc3)cc2)cc1` showed an IC50 in experiment [1] of 10 nM. For the same compound, the MIC was 6.25 µM (≈ 3.13 µg/mL) in experiment [2], 100 µM (≈ 50.1 µg/mL) in [3], 12.5 µM (≈ 6.26 µg/mL) in [4] and 50 µM (≈ 25 µg/mL) in experiment [5].
For `O=C(NO)C1(COc2ccc(OCc3ccccc3)cc2)CCOCC1`, in that order: 14 nM, 6.25 µM (≈ 2.23 µg/mL), 200 µM (≈ 71.5 µg/mL), 200 µM (≈ 71.5 µg/mL) and over 200 µM.
As for `C[C@@H]1CN(Cc2ccc(C#Cc3ccc(OCC4(C(=O)NO)CCOCC4)cc3)cc2)C[C@H](C)O1`, it took 2.6 nM to reach half-maximal inhibition in experiment [1] (IC50). Further, the MIC in experiment [2] is 3.13 µM (≈ 1.5 µg/mL); in [3], over 200 µM; in [4], 0.39 µM (≈ 0.187 µg/mL); in experiment [5], 12.5 µM (≈ 5.98 µg/mL). In addition, the inhibition in [7] is 92%; in experiment [8] it was 75%.

For the origin of these results see ChEMBL document CHEMBL3352564, “Synthesis, Structure, and SAR of Tetrahydropyran-Based LpxC Inhibitors” (ACS Med Chem Lett, 2014).
